Data taken from patent publication US20220378714A1, “USE OF CANNABIDIOL PREPARATIONS IN THE TREATMENT OF FRAGILE X SYNDROME” (GW Research Limited, priority 2019, published 2022).

Key:
Assay type in all cases: in vivo
Fmr1 KO mice [1] = test: Behavioral testing (cohort 2), overall conclusion; conditions: 20 and 200 mg/kg i.p. once daily
Procedure: Test compounds were evaluated at 2 doses each (20 and 200 mg/kg). Test compounds were injected i.p. (intraperitoneal) acutely at 60 min pre-treatment for audiogenic seizures (cohort 1). For all other behavioural testing, a separate cohort of animals were dosed i.p. once per day for 2 weeks prior to the start of testing and then for 2 weeks during testing, with 60 min pre-treatment on test days (cohort 2).
(§1) 60 male mice were tested at 8 weeks of age. CBD (SYN OR BOT 0.08%) were evaluated at 2 doses each (20 and 200 mg/kg) following once daily intraperitoneal administration, at a dose volume of 10 ml/kg. Compounds were administered for 2 weeks prior to the start of testing and throughout testing.
(§2) On the test day, compounds were administered 60 minutes prior to test.

Fmr1 KO mice [2] = test: Open field
Procedure: as §1, §2
The open field chambers are Plexiglas square chambers (27.3×27.3×20.3 cm; Med Associates Inc., St Albans, Vt.) surrounded by infrared photo beams (16×16×16) to measure horizontal and vertical activity. On the day of testing, mice were brought to the activity experimental room for acclimation to the conditions at least 1 h prior to testing. After a 60 minute pretreatment time, mice were placed in the center of an open field activity box for a 60 minute test period. After the completion of the test, mice were placed back in their home cage.
The time courses for locomotor and rearing activities were presented in 5-minute bins during the 60 minute test. Total distance traveled, and numbers of rears were also summed during the 60 minute test.

Fmr1 KO mice [3] = test: Audiogenic seizures (cohort 1); conditions: 200 mg/kg i.p. acute, 60 min pre-treatment, vs vehicle-treated Fmr1 KO
Procedure: 48 male mice were tested at 3 weeks of age. CBD (SYN OR BOT 0.08%) were tested at 2 doses each (20 and 200 mg/kg) following acute intraperitoneal administration at a dose volume of 10 ml/kg. Compounds were administered 60 minutes prior to test.
Following pre-treatment with vehicle or test compound, mice were individually placed in a Plexiglas chamber and allowed to explore for 15 s following which they were exposed to a 125 dB tone for 2 minutes, followed by 1 minute of no sound, and then a further 2 minute tone. The mice were scored based on their response, latency, and seizure intensity:
The following endpoints were reported: • 1. Latency to seize: Time to first seizure (maximum 300 s). […] Latency to respiratory arrest: Time to death (maximum 300 s). Animals that survived received a score of 300 s. • 3. Seizure Score: Maximum score animals obtained during the 5 minute test.

Fmr1 KO mice [4] = test: Social interaction (three-chamber paradigm); conditions: higher dose (200 mg/kg i.p.)
Procedure: as §1, §2
The three-chamber paradigm is used to assess social interest. The Plexiglas testing apparatus consists of two side chambers and a center chamber, each 42.5 cm×17.5 cm×23 cm. […]
Group-housed naïve partner mice (age-matched C3H mice) were habituated to the chamber for 30 minutes the day before testing. […] The doorways were then lifted and the subject was allowed to feely explore all three chambers for 10 min while movement was video-recorded and scored manually for sniffing of the mouse or object. […]
Discrimination percentage for time spent in chambers was calculated as (total time spent in mouse chamber-total time spent in object)/(total time spent in mouse+total time in object chamber)*100 and presented in FIG. 4.
Discrimination percentage for interaction frequency was calculated as (number of interactions with mouse−number of interactions with object)/(total number of interactions with the mouse+the object)*100 and is presented in FIG. 5. […]

## C=C(C)[C@@H]1CCC(C)=C[C@H]1c1c(O)cc(CCCCC)cc1O [CBD (SYN), cannabidiol]
Fmr1 KO mice [1]
  social or memory related behaviors: Neither the botanically derived purified CBD or the synthetic CBD were found to have any significant improvement
Fmr1 KO mice [2]; 20 mg/kg i.p. once daily, 60 min pre-treatment
  total distance traveled during the 60 minute test period: traveled significantly more than mice treated with CBD (BOT 0.08%) 20 mg/kg
Fmr1 KO mice [2]; 200 mg/kg i.p. once daily, post-hoc multiple comparisons
  rearing frequency in 5 min bins: periods in which Fmr1 KO-vehicle treated mice reared significantly more than the treated group: during minutes 35-40 and during minutes 55-60
Fmr1 KO mice [3]
  median seizure score: This effect was not observed
Fmr1 KO mice [4]; Dunn's test vs vehicle-treated Fmr1 KO
  discrimination percentage for time spent in chambers: enhanced discrimination compared to vehicle-treated Fmr1 KO mice
Fmr1 KO mice [4]; Sidak's test vs Fmr1 KO vehicle
  total time spent in the partner mouse chamber: spent significantly more time in the partner mouse chamber
